Measured values taken from publication PMC11718441, “Bis-3-chloropiperidines: a novel motif for anthelmintic drug design” (RSC Advances, 2025).
≈ marks a conversion by molar mass, not a printed value. Read-outs that look alike come from different tables or passages of the source.

What was measured:
[1] = tested on: Septoria tritici MUCL45408; test: Minimum inhibitory concentration (MIC), S. tritici (ATP quantification); type: cell-based; settings: for MIC: Zymoseptoria tritici, read-out: MIC St
Procedure: (§1) The minimum inhibitory concentration (MIC) of the synthesized compounds was initially determined against three microbial indicator strains (Escherichia coli ATCC35218, […] ATCC33592, Septoria tritici MUCL45408). […]
(§2) 2. Microbial and parasitological studies
(§3) The minimum inhibitory concentration (MIC) of the synthesized compounds was determined against three microbial indicator strains (E. coli ATCC35218, S. aureus ATCC33592 and S. tritici MUCL45408) as previously described.1,2 All samples were dissolved in DMSO and tested in triplicate. Briefly, a pre-culture of E. coli and S. aureus was prepared by incubating the strains in cation adjusted Mueller Hinton 2 broth (Becton Dickinson, Sparks, NV, USA) at 37°C and 180 rpm overnight. The cell density of adjusted to 5 × 10^5 cells/mL before assays were incubated at 37 °C, 180 rpm and 85% rH. Three distinct dilution series of standard antibiotics (gentamicin, rifampicin, and tetracycline) were used as positive controls on each assay plate. Inoculated medium without test compound or positive control was used as negative control.
Medium background was averaged from 5 replicates. The turbidity of each well was measured with a microplate spectrophotometer at 600 nm (LUMIstar® Omega, BMG Labtech) and growth inhibition was calculated relative to the absorption of the controls. For S. tritici MUCL45408 inoculated at a density of 1 × 10^5 cells/mL in potato […]
dextrose medium. Septoria assay plates were incubated for 4 days at 25 °C, 180 rpm and 85% rH. Tebuconazole, amphotericin B, and nystatin were used as positive controls. Cell viability was evaluated via ATP quantification (BacTiter-Glo™, Promega GmbH, Walldorf, Germany) according to the manufacturer’s instructions. […]

[2] = tested on: C. elegans N2; test: whole plant or invertebrate; type: cell-based, Caenorhabditis elegans; settings: for minimal effective concentration: Caenorhabditis elegans, 48 h, read-out: MMIC N2
From the text: (§4) The cuticle of C. elegans strain DC19 is known to be more permeable for small molecules compared to the wildtype N2.[30] DC19 is thereby considered an informative drug-sensitive test organism. In our assays, we determined the minimum mobility inhibitory concentration (MMIC) as a proxy for anthelmintic activity. […] In contrast, MMICs of some small molecule anthelmintics such as albendazole, mebendazole or PF-1022A were lower for DC19 (Fig. S1 ^†). […]
(§5) 2.2 In vitro tests against Caenorhabditis Elegans
(§6) The minimal motility inhibitory concentration (MMIC) of compounds 1-22 against C. elegans was determined as described before.3 Both strains, C. elegans N2 and DC19 were treated identically. Briefly, pre-cultures of C.elegans were kept on NGM agar plates infused with auxotrophic E.coli OP50 as food source.4 After 4 days the plates contained sufficient gravid worms, respectively. Worms were washed from the plates with M9 buffer using wide bore pipette tips. Egg preparation was carried out by treating the harvested worms with an alkaline hypochlorite solution (5 M NaOH + 5 % NaOCl 1:2) in polypropylene tubes. Larvae and adult […]
(§7) We carried out 3 washing steps (M9 buffer) to remove carry-over hypochlorite solution. Subsequently, the eggs were incubated overnight in NGM broth on a rotator to yield synchronized hatched L1/L2 larvae. The larvae solution was adjusted to 100 worms/mL and supplemented with cholesterol (5 µg/mL), carbenicillin (25 µg/mL) and E.coli OP50 (0.5%). This assay solution was distributed into 96 well plates and incubated with a dilution series of compounds 1-22 (64-0.5 µg/mL). An additional eight-point dilution series of ivermecin (40 – 0.3 ng/mL) was used as positive control on each assay plate. Solvent background was controlled by supplementation of pure DMSO without any compound. Assays were incubated for 2 days at room temperature. Finally, a cell imaging multimode reader (Cytation™ 5) was used to record short videos (1.5 seconds) of each individual test well. The videos were used to evaluate the worm motility.

[3] = tested on: C. elegans DC19; test: whole plant or invertebrate; type: cell-based, Caenorhabditis elegans
From the text: as §4, §5, §6, §7

[4] = tested on: Escherichia coli ATCC35218; test: microbe, parasite or virus in culture; type: cell-based; settings: ATCC35218, read-out: MIC Ec
Procedure: as §1, §2
as §3, with “and tetracycline) were used as positive controls on each assay plate. Inoculated medium without test compound or positive control was used as negative control.” left out
(§8) medium without test compound or positive control was used as negative control.
(§9) Medium background was averaged from 5 replicates. The turbidity of each well was […]

[5] = tested on: S. aureus ATCC33592; test: microbe, parasite or virus in culture; type: cell-based; settings: Staphylococcus aureus, ATCC33592, read-out: MIC Sa
Procedure: as §1, §2
as §3, with “and tetracycline) were used as positive controls on each assay plate. Inoculated medium without test compound or positive control was used as negative control.” left out
as §8, §9

[6] = tested on: MDCK II cells; test: In vitro cytotoxicity, CellTiter-Glo, MDCK II cells; settings: 100 μM; for MDCKII cytotoxicity: 48 h, cell viability less than 80% relative to DMSO control = cytotoxic
[7] = tested on: Schistosoma mansoni; test: In vitro tests against Schistosoma mansoni (vitality parameters of adult worm pairs); type: cell-based
Procedure: Subsequently, we tested whether compounds with nematocidal activity display a broader activity also against parasitic flatworms. To this end, in vitro tests against the blood fluke S. mansoni were conducted (Fig. 4). The worms were incubated in presence of 10 and 20 μM of compounds 1–22 and phenotypic vitality parameters (separation of worm pairs, detachment of suckers from the bottom of the well and weakening of body movements) were assessed as previously described.[31] Compounds reaching 100% effect strength in one of the parameters within 7 days were considered active. Reduction of motility is considered most relevant for antischistosomal drug candidates.[32] In addition, loss of sucker activity would make parasites drifting off from their host habitat (mesenteric veins) and with pair separation, the production of pathology-causing eggs eventually ceases.[33] […] For some molecular targets e.g. glutamate and GABA chloride channels (ivermecin, abamectin) and β-tubulin (albendazole, mebendazole) the C. elegans assays results were transferable to Schistosoma, while for others e.g. acetylcholin mimetic (levamisole) the C. elegans MMIC was not predicative (Fig. S1 ^†).
2.2 Parasitological studies
Animal experiments were performed in accordance with Directive 2010/63/EU on the protection of animals used for scientific purposes and the German Animal Welfare Act. The experiments were approved by the Regional Council (Regierungspraesidium) Giessen (V54 – […]
A Liberian strain of S. mansoni was maintained in the freshwater snail Biomphalaria glabrata as intermediate host and Syrian hamsters (Mesocricetus auratus) as final host (Janvier Labs, France).5,6 Hamsters were infected at 8 weeks of age with 1,750 cercariae by using the paddling method.7 Adult worms were collected at 46 days p.i. by hepatoportal perfusion and cultured in M199 medium (Sigma-Aldrich, Germany) supplemented with 10% Newborn Calf Serum (NCS, Sigma-Aldrich), 1% 1 M HEPES (ThermoFisher Scientific, USA) and 1% ABAM solution (10,000 units/ml penicillin, 10 mg/ml streptomycin and […] amphotericin B; Sigma-Aldrich, Germany) at 37 °C, 5% CO2 and humidified atmosphere.
2.2.3. In vitro tests against Schistosoma mansoni
Test compounds were added at 10 µM or 20 µM in supplemented M199 medium to schistosomes (5 worm pairs per replicate) followed by a 7 d in vitro culture. Worms receiving the solvent DMSO at equal dilution served as negative control. The following vitality parameters were assessed every 24 h by bright field microscopy using a Leica DM IL inverted microscope and x2.5 objective lens: separation of worm pairs into male and female worms; detachment of suckers from the bottom; and weakening of body movements. Worm motility was scored as described previously, 8 with the scores 3 (normal motility), 2 (reduced motility), 1 (minimal and sporadic movements), 0 (no movements within 20 sec; dead worms). An average score of all worms per well was calculated to obtain a motility score. An average motility score of 0, separation of all pairs or detachment of all worms per well was considered

[8] = Figure S1, common small molecule anthelminthics

C[C@@H]1[C@H](O)[C@@H](C)/C=C/C=C/C=C/C=C/C=C/C=C/C=C/[C@H](O[C@@H]2O[C@H](C)[C@@H](O)[C@H](N)[C@@H]2O)C[C@@H]2O[C@](O)(C[C@@H](O)C[C@@H](O)[C@H](O)CC[C@@H](O)C[C@@H](O)CC(=O)O[C@H]1C)C[C@H](O)[C@H]2C(=O)O [AMP, amphotericin B, reference compound]
MIC ([1]; MUCL45408, 96 h): 0.125 µg/mL (≈ 0.135 µM)

CCCSc1ccc2nc(NC(=O)OC)[nH]c2c1 [Albendazole, reference compound]
C. elegans MMIC N2 [2]: 0.16 µg/mL | C. elegans MMIC DC19 [3]: < 0.08 µg/mL

CNC(=O)O/N=C/C(C)(C)SC [Aldicarb, reference compound]
C. elegans MMIC N2 [2, 8]: > 10 µg/mL | C. elegans MMIC DC19 [3, 8]: > 10 µg/mL

CC1(C)CC(Cl)CN(Cc2cccc(CN3CC(Cl)CC(C)(C)C3)c2)C1 (centres unmarked) [Compound 1]
minimal effective concentration [2]: 64 µg/mL | MIC ([1]; MUCL45408, 96 h): 64 µg/mL (≈ 161 µM) | MIC [4]: > 64 µg/mL | MIC [5]: > 64 µg/mL | cytotoxicity against MDCK II (in words) [6]: cytotoxic | MDCKII cytotoxicity [6]: + (“+” (toxic)) | activity against S. mansoni (100% effect strength in one parameter within 7 days = active) ([7]; 10 or 20 μM): Schistosoma-specific | motility score ([7]; score 3 normal motility to 0 dead, paragraph on 20 μM): 1–1.2

CC1(C)CC(Cl)CN(Cc2cccc(CN3CC(Cl)CC(C)(C)C3)n2)C1 (centres unmarked) [Compound 6]
minimal effective concentration [2]: 64 µg/mL | MIC ([1]; MUCL45408, 96 h): > 64 µg/mL | MIC [4]: > 64 µg/mL | MIC [5]: 64 µg/mL (≈ 161 µM) | MDCKII cytotoxicity [6]: + (“+” (toxic))

CCCCN1CC(Cl)CC(C)(C)C1 (centres unmarked) [Compound 16]
minimal effective concentration [2]: > 64 µg/mL | minimal effective concentration ([3]; Caenorhabditis elegans, 48 h, read-out: MMIC DC19): > 64 µg/mL | MIC ([1]; MUCL45408, 96 h): > 64 µg/mL | MIC [4]: > 64 µg/mL | MIC [5]: > 64 µg/mL | MDCKII cytotoxicity [6]: − (“−” (not toxic))

CNC(C)C1CCC(N)C(OC2C(N)CC(N)C(OC3OCC(C)(O)C(NC)C3O)C2O)O1 (centres unmarked) [GEN, gentamicin, reference compound]
MIC [4]: 1 µg/mL (≈ 2.09 µM) | MIC [5]: 0.5 µg/mL (≈ 1.05 µM)

C[C@H](CCC(=O)O)C[C@H](C)C[C@H](C)C(=O)/C=C(\O)[C@H](C)C[C@H](C)C/C=C/[C@@H](C)[C@@H](O)[C@@H](C)[C@@H](O)C[C@@H]1CC[C@@](C)([C@H]2CC[C@@](C)([C@@H](C)O)O2)O1 [ION, ionomycin, reference compound]
MDCKII cytotoxicity [6]: + (“+” (toxic))

c1ccc([C@H]2CN3CCSC3=N2)cc1 [Levamisole, reference compound]
C. elegans MMIC N2 [2]: 0.3 µg/mL | C. elegans MMIC DC19 [3]: 0.3 µg/mL

COC(=O)Nc1nc2ccc(C(=O)c3ccccc3)cc2[nH]1 [Mebendazole, reference compound]
C. elegans MMIC N2 [2, 8]: 1.25 µg/mL | C. elegans MMIC DC19 [3, 8]: 0.3 µg/mL

C[C@@H]1[C@H](O)[C@@H](C)/C=C/C=C/CC/C=C/C=C/C=C/C=C/C(O[C@H]2O[C@H](C)[C@@H](O)[C@H](N)[C@@H]2O)CC2O[C@](O)(CC(O)C(O)CCC(O)CC(O)CC(O)CC(=O)O[C@H]1C)CC(O)C2C(=O)O (some centres unmarked) [NYS, nystatin, reference compound]
MIC St ([1]; S. tritici MUCL45408, 4 days): 0.25 µg/mL (≈ 0.27 µM)

CC(=O)Oc1ccccc1C(=O)Nc1ncc([N+](=O)[O-])s1 [Nitazoxanide, reference compound]
C. elegans MMIC N2 [2, 8]: > 10 µg/mL | C. elegans MMIC DC19 [3, 8]: > 10 µg/mL

CC(C)C[C@H]1C(=O)O[C@H](Cc2ccccc2)C(=O)N(C)[C@@H](CC(C)C)C(=O)O[C@H](C)C(=O)N(C)[C@@H](CC(C)C)C(=O)O[C@H](Cc2ccccc2)C(=O)N(C)[C@@H](CC(C)C)C(=O)O[C@H](C)C(=O)N1C [PF-1022A, reference compound]
C. elegans MMIC N2 [2, 8]: 10 µg/mL | C. elegans MMIC DC19 [3, 8]: 2.5 µg/mL

O=C(C1CCCCC1)N1CC(=O)N2CCc3ccccc3C2C1 (centres unmarked) [Praziquantel, reference compound]
C. elegans MMIC N2 [2, 8]: > 10 µg/mL | C. elegans MMIC DC19 [3, 8]: > 10 µg/mL

CO[C@H]1/C=C/O[C@@]2(C)Oc3c(C)c(O)c4c(O)c(c(/C=N/N5CCN(C)CC5)c(O)c4c3C2=O)NC(=O)/C(C)=C\C=C\[C@H](C)[C@H](O)[C@@H](C)[C@@H](O)[C@@H](C)[C@H](OC(C)=O)[C@@H]1C [RIF, rifampicin, reference compound]
MIC [4]: 4 µg/mL (≈ 4.86 µM) | MIC [5]: > 64 µg/mL

CC(C)(C)C(O)(CCc1ccc(Cl)cc1)Cn1cncn1 (centres unmarked) [TEB, tebuconazole, reference compound]
MIC ([1]; 96 h, S. tritici MUCL45408, 4 days): > 0.03 µg/mL

Abamectin [reference compound]
C. elegans MMIC N2 [2, 8]: < 0.08 µg/mL | C. elegans MMIC DC19 [3, 8]: < 0.08 µg/mL

ivermectin [IVR, reference compound]
MMIC N2 ([2]; C. elegans N2, 2 days): 0.005 µg/mL | C. elegans MMIC N2 [2, 8]: 0.005 µg/mL | MMIC DC19 ([3]; C. elegans DC19, 2 days): 0.005 µg/mL | C. elegans MMIC DC19 [3, 8]: 0.005 µg/mL
